In one series the test system is HCV-replicon. Nature of the series: Inhibition of HCV-replicon replication in HCV-replicon cells (quantitative PCR of replicon RNA). In kind it is cell-based, Hepatitis C virus. The conditions noted are these: for inhibition of replication of the HCV-replicon: HGF alone, clone #5-15, 48 hours. On the procedure:
As a cell system for in vitro replication of HCV, an HCV-replicon cell clone #5-15 derived from the human liver cancer cell strain Huh7 was used (purchased from ReBLikon GmbH). The clone #5-15 was suspended in the Dulbecco's Eagle's MEM medium containing 2% fetal bovine serum, and seeded on a 96-well plate at 1.5×10^4 cells/100 μl/well. As blank, wells added with the medium alone was prepared without seeding the cells (Day 0). After culture overnight in a humid incubator at 37° C. under 5% CO2 gas, 50 μl each of human recombinant IFNα (BIOMEDICAL LABORATORIES, Cat. No. 11105-1, lot No. #2122) and/or human recombinant HGF (produced in-house, Lot No. 920629) was added to each well. The final concentrations of IFNα were 0, 0.1 and 0.3 international unit (IU)/ml, the final concentrations of HGF were 0, 10 and 100 ng/ml, and the final volume was adjusted to 200 μl for all the wells. Three wells (triplicate) were prepared for each sample (Day 1). After culture for 48 hours, total RNA was extracted from each well by using ABI-PRIZM 6100 Nucleic Acid PrepStation (Applied Biosystems). Extraction was performed according to the operation manual of the apparatus. The solution of the extracted RNA was stored at −80° C. (Day 3). The samples were thawed on the next day, and amounts of the HCV-replicon RNA were quantified by quantitative polymerase chain reaction (PCR). The quantification was performed according to the method of Takeuchi et al. (Takeuchi, T. et al., Gastroenterology, Vol. 116, 636-642 (1999)) by using ABI PRISM 7900 (Applied Biosystems).
RNAs used in the quantitative PCR for a standard curve were prepared by in vitro transcription using a vector obtained by ligating the gene of the HCV MKC-1A strain (Genbank accession No. D45172) to the downstream of the T7 promoter using T7 RiboMAX Express Large Scale RNA Production System (Promega), and it was confirmed that linearity was obtainable between 10^2 and 10^8 in the aforementioned quantitative PCR.
A general note: In antiviral work, replicon cells carry a viral genome segment that copies itself.

For series [1], the system named is HCV-replicon cell clone #5-15 derived from Huh7. Nature of the series: Growth of HCV-replicon cell strain (Cell Titer 96 Aqueous One Solution Cell Proliferation Assay, absorbance 490 nm). The conditions noted are these: HGF 0, 10, 100 ng/ml; IFNα 0, 0.1, 0.3 IU/ml; 48 hours. In kind it is cell-based, human. On the procedure: To determine whether or not the decreases in the replication of HCV-replicons observed in Example 1 were attributable to the decrease in the cell count itself, the following experiment was performed.
The clone #5-15 was suspended in Dulbecco's Eagle's MEM medium containing 2% fetal bovine serum, and seeded on a 96-well plate at 1.5×10^4 cells/100 μl/well. As blank, wells added with a medium alone was prepared without seeding cells (Day 0). After culture overnight in a humid incubator at 37° C. under 5% CO2 gas, 50 μl each of human recombinant IFNα (BIOMEDICAL LABORATORIES, Cat. No. 11105-1, lot No. #2122) and/or human recombinant HGF (produced in-house, Lot No. 920629) was added to each well. The final concentrations of IFNα were 0, 0.1 and 0.3 international unit (IU)/ml, the final concentrations of HGF were 0, 10 and 100 ng/ml, and the final volume was adjusted to 200 μl for all the wells. Three wells (triplicate) were prepared for each sample (Day 1). After culture for 48 hours, the number of cells was measured by Cell Titer 96 Aqueous One Solution Cell Proliferation Assay (Promega, Lot #171755), which is a type of cell growth assay kit. The measurement was performed according to the manual of the assay kit. […] Then, the plate was incubated for one hour in a humid incubator containing 5% CO2 set at 37° C., and then measured at absorbance 490 nm by using a 96-well plate reader.

A further series concerns Hepatitis C virus. The settings on record: cited from earlier work.
The next series concerns HCV-subgenomic replicon. The settings on record: Huh7 cells; cited from earlier work.

As for “HGF: human recombinant HGF (produced in-house, Lot No. 920629); hepatocyte growth factor”, the “effect of HGF on IFN-dependent inhibition of virus replication” value with HCV-replicon (HGF 10 ng/ml combined with IFN) is on record as “synergistically enhanced”. The figures for the “inhibition of replication of the HCV-replicon” value with HCV-replicon (10 ng/ml) and in the series with HCV-replicon (100 ng/ml) were “almost no inhibition of the replication was observed” and “inhibited the replication of the HCV-replicon”, respectively. Moreover, the “effect of HGF on inhibition of HCV-replicon replication by IFN” value in the series with HCV-replicon (HGF combined with IFN 0.1 IU/ml) is “synergistically acted to inhibit the replication of HCV-replicons”; in the series with HCV-replicon (HGF combined with IFN 0.3 IU/ml), “effect of HGF was not observed”. Further, in series [1], the “inhibition of growth of the HCV-replicon cell line” value is “not observed to inhibit the growth”.

Turning to `NC(=O)c1ncn([C@@H]2O[C@H](CO)[C@@H](O)[C@H]2O)n1` [Ribavirin, ribavirin], the “efficacy against HCV” value with Hepatitis C virus (agent alone) is listed as “ineffective”.

Regarding `COc1ccc2c(O[C@@H]3C[C@H]4C(=O)N[C@]5(C(=O)O)C[C@H]5/C=C\CCCCC[C@H](NC(=O)OC5CCCC5)C(=O)N4C3)cc(-c3csc(NC(C)C)n3)nc2c1` [BILN-2061], the “inhibition of replication of replicon RNA” value in the series on HCV-subgenomic replicon is listed as “inhibits replication of replicon RNA”. Moreover, the improvement of viremia entry in the series on Hepatitis C virus (patients with hepatitis C) is listed as “confirmed to improve viremia”.

Values taken from patent US20090028820A1, “Antiviral Agent” (MITSUBISHI TANABE PHARMA CORPORATION, priority 2005, published 2009).
